Results as given in US12116357B2, “Heteroaryl-triazole and heteroaryl-tetrazole compounds as pesticides” (Bayer Aktiengesellschaft, priority 2018, dated 2024).

Test: log P by HPLC on reversed phase columns (EEC directive 79/831 Annex V.A8)
Format: physicochemical
Conditions: LC-UV, neutral range, 0.001 molar ammonium acetate in water and acetonitrile (table footnote); for chromatographic logP: reversed phase HPLC column, read-out: LogP^[a]

Compound | chromatographic logP | LogP^[a]
CC(NCCc1ccc(F)cc1)c1ncnn1-c1ncccn1 (stereo not drawn) [a-009] | 1.62 | –
CC(NCC1(C)CC1)c1ncnn1-c1ncccn1 (stereo not drawn) [a-010] | 1.73 | –
CC(NCc1ncccn1)c1ncnn1-c1ncccn1 (stereo not drawn) [a-011] | 0.38 | –
CC(NCC1CCCO1)c1ncnn1-c1ncccn1 (stereo not drawn) [a-012] | 0.8 | –
CC(NCC1CCOC1)c1ncnn1-c1ncccn1 (stereo not drawn) [a-013] | 0.66 | –
CC(NCc1ccncc1)c1ncnn1-c1ncccn1 (stereo not drawn) [a-014] | 0.53 | –
CC(NCC1CCOC1)c1ncnn1-c1ncccn1 (stereo not drawn) [a-015] | – | 0.66
CC(NCC1CCCCC1)c1ncnn1-c1ncccn1 (stereo not drawn) [a-016] | 2.03 | –
CSCCNC(C)c1ncnn1-c1ncccn1 (stereo not drawn) [a-017] | 0.92 | –
CC(NCc1ccc(C#N)cc1)c1ncnn1-c1ncccn1 (stereo not drawn) [a-018] | 1.35 | –
CC(NCc1cccnc1)c1ncnn1-c1ncccn1 (stereo not drawn) [a-019] | 0.68 | –
COc1ccc(CNC(C)c2ncnn2-c2ncccn2)cc1 (stereo not drawn) [a-020] | 1.41 | –
CC(NC1COC1)c1ncnn1-c1ncccn1 (stereo not drawn) [a-021] | 0.26 | –
CC(NCC1OCCO1)c1ncnn1-c1ncccn1 (stereo not drawn) [a-022] | 0.53 | –
CC(NC1CSC1)c1ncnn1-c1ncccn1 (stereo not drawn) [a-023] | 0.87 | –
CONC(C)c1ncnn1-c1ncccn1 (stereo not drawn) [a-024] | 0.42 | –
CSCCNC(C)c1ncnn1-c1ccc(C#N)cn1 (stereo not drawn) [a-025] | 1.65 | –
CC(NCCSC(F)(F)F)c1ncnn1-c1ccc(C#N)cn1 (stereo not drawn) [a-026] | 2.51 | –
